Tests used:
[1] = Solubility of rotigotine in matrix components; format: physicochemical
[2] = as described in WO 2009/068520; cited from earlier work

Solubility in a crystallization inhibitor such as polyvinylpyrrolidone [1]	Solubility in silicone adhesives [1]	SMILES	Thermodynamic stability of the polymorphic form [2]
good soluble	very poorly soluble	CCCN(CCc1cccs1)[C@H]1CCc2c(O)cccc2C1 [Rotigotine]	
		CCCN(CCc1cccs1)[C@H]1CCc2c(O)cccc2C1 [polymorphic form II]	thermodynamically more stable than the polymorphic form I
